Results reported in ChEMBL document CHEMBL4665643 (Bioorg Med Chem Lett, 2019).

Experiments:
[1] = target: T1, Interleukin-1 receptor-associated kinase 4 (Homo sapiens) (UniProt Q9NWZ3); assay: Inhibition of recombinant human His-tagged full length IRAK4 expressed in baculovirus expression system using Ser/Thr 07 as substrate at 0.1 uM incubated for 60 mins by Z'-Lyte assay relative to control
T1 sequence (whole entry): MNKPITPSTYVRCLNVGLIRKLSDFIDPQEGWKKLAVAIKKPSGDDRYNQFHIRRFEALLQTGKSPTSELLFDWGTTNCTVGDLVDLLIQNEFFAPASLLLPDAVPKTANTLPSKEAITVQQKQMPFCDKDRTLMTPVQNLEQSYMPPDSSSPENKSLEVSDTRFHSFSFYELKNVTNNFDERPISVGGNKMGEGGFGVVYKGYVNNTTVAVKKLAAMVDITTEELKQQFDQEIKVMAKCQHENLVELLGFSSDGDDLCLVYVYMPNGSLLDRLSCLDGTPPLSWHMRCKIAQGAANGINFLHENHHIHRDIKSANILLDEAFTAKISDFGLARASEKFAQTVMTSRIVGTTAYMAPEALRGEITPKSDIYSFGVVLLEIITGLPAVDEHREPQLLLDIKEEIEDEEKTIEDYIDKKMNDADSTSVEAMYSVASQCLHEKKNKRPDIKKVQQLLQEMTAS

[2] = target: Insulin-like growth factor 1 receptor (Homo sapiens) (UniProt P08069); assay: Inhibition of recombinant human His-tagged IGF1R (960 to 1397 residues) expressed in baculovirus expression system using Tyr 01 as substrate at 0.1 uM incubated for 60 mins by Z'-Lyte assay relative to control
[3] = target: Fibroblast growth factor receptor 4 (Homo sapiens) (UniProt P22455); assay: Inhibition of recombinant human His-tagged FGFR4 ([…]) expressed in baculovirus expression system using Tyr 04 as substrate at 0.1 uM incubated for 60 mins by Z'-Lyte assay relative to control
[4] = target: Serine/threonine-protein kinase pim-1 (Homo sapiens) (UniProt P11309); assay: Inhibition of recombinant human His-tagged full length PIM1 expressed in baculovirus expression system using Ser/Thr 07 as substrate at 0.1 uM incubated for 60 mins by Z'-lyte assay relative to control
[5] = target: Proto-oncogene tyrosine-protein kinase ROS (Homo sapiens) (UniProt P08922); assay: Inhibition of recombinant human GST-tagged […] ROS1 (1883 to 2347 residues) expressed in baculovirus expression system using Tyr 01 as substrate at 0.1 uM incubated for 60 mins by Z'-Lyte assay relative to control
[6] = target: Ribosomal protein S6 kinase alpha-5 (Homo sapiens) (UniProt O75582); assay: Inhibition of recombinant human GST-tagged full length MSK1 expressed in baculovirus expression system using Ser/Thr 01 as substrate at 0.1 uM incubated for 60 mins by Z'-lyte assay relative to control
[7] = target: Tyrosine-protein kinase ABL1 (Homo sapiens) (UniProt P00519); assay: Inhibition of recombinant human His-tagged full length Abl expressed in baculovirus expression system using Tyr 02 as substrate at 0.1 uM incubated for 60 mins by Z'-Lyte assay relative to control
LRRK2 = LRRK2 (Homo sapiens, UniProt Q5S007); assay: Inhibition of recombinant human GST-tagged LRRK2 (970 to 2527 residues) expressed in baculovirus expression system using LRRKtide as substrate at 0.1 uM incubated for 60 mins by Adapta assay relative to control; settings: probe LRRKtide
[8] = target: T2, Phosphatidylinositol 4,5-bisphosphate 3-kinase catalytic subunit delta isoform (Homo sapiens) (UniProt O00329); assay: Inhibition of recombinant human His-tagged full length PI3Kdelta expressed in baculovirus expression system using PIP:PS as substrate at 0.1 uM incubated for 60 mins by Adapta assay relative to control
T2 sequence (whole entry): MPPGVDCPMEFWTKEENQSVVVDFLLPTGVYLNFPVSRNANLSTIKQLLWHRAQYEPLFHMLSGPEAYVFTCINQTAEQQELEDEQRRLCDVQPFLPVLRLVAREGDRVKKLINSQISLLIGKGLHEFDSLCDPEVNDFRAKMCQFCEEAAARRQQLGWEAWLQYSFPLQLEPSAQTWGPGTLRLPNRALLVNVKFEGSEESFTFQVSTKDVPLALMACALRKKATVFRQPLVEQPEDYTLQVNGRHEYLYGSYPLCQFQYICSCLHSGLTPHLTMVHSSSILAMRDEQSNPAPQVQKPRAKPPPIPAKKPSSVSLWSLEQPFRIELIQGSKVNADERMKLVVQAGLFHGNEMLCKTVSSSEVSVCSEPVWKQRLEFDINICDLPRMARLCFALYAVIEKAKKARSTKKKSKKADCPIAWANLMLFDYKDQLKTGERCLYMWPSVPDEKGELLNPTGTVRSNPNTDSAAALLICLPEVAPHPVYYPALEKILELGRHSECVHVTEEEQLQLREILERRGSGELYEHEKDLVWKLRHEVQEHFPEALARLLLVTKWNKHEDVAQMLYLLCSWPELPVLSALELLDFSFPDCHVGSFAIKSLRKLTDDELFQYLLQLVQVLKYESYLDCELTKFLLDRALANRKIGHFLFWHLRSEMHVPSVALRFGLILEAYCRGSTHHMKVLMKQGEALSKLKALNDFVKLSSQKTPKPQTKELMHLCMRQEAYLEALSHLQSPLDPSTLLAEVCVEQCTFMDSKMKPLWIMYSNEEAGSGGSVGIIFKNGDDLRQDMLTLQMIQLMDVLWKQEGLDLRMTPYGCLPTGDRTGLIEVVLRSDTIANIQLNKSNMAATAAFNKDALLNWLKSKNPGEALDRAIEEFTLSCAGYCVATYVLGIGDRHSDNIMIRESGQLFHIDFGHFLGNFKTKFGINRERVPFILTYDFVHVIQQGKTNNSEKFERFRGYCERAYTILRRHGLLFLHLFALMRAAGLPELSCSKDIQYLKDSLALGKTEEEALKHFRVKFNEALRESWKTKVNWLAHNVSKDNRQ

[9] = target: Mitogen-activated protein kinase 8 (Homo sapiens) (UniProt P45983); assay: Inhibition of recombinant human His-tagged full length JNK1alpha1 expressed in baculovirus expression system using Ser/Thr 04 as substrate at 0.1 uM incubated for 60 mins by Z'-lyte assay relative to control
[10] = target: CDK8/Cyclin C (Homo sapiens) (UniProt P49336+P24863); assay: Inhibition of tracer 236 binding to recombinant human His-tagged full length CDK8/Cyclin C expressed in baculovirus expression system at 0.1 uM incubated for 60 mins by Lanthascreen assay relative to control
[11] = target: Serine/threonine-protein kinase pim-2 (Homo sapiens) (UniProt Q9P1W9); assay: Inhibition of recombinant human GST-tagged full length PIM2 expressed in baculovirus expression system using Ser/Thr 07 as substrate at 0.1 uM incubated for 60 mins by Z'-lyte assay relative to control
[12] = target: Calcium/calmodulin-dependent protein kinase type 1D (Homo sapiens) (UniProt Q8IU85); assay: Inhibition of recombinant human His-tagged full length CAMK1delta expressed in baculovirus expression system using Ser/Thr 25 as substrate at 0.1 uM incubated for 60 mins by Z'-Lyte assay relative to control
Chain of Calcium/calmodulin-dependent protein kinase type 1D (Homo sapiens) (Q8IU85 whole entry, looked up): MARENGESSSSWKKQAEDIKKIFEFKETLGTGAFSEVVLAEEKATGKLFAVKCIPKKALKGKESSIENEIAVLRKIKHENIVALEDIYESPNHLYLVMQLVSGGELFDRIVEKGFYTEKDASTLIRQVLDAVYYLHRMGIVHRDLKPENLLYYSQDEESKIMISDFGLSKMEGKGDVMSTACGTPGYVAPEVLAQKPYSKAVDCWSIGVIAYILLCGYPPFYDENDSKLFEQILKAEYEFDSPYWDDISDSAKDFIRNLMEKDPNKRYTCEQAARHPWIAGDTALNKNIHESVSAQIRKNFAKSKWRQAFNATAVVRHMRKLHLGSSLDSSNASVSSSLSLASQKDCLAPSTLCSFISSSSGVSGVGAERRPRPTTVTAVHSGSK

Chain of LRRK2 (Q5S007 whole entry, the tested form may be a part, canonical isoform): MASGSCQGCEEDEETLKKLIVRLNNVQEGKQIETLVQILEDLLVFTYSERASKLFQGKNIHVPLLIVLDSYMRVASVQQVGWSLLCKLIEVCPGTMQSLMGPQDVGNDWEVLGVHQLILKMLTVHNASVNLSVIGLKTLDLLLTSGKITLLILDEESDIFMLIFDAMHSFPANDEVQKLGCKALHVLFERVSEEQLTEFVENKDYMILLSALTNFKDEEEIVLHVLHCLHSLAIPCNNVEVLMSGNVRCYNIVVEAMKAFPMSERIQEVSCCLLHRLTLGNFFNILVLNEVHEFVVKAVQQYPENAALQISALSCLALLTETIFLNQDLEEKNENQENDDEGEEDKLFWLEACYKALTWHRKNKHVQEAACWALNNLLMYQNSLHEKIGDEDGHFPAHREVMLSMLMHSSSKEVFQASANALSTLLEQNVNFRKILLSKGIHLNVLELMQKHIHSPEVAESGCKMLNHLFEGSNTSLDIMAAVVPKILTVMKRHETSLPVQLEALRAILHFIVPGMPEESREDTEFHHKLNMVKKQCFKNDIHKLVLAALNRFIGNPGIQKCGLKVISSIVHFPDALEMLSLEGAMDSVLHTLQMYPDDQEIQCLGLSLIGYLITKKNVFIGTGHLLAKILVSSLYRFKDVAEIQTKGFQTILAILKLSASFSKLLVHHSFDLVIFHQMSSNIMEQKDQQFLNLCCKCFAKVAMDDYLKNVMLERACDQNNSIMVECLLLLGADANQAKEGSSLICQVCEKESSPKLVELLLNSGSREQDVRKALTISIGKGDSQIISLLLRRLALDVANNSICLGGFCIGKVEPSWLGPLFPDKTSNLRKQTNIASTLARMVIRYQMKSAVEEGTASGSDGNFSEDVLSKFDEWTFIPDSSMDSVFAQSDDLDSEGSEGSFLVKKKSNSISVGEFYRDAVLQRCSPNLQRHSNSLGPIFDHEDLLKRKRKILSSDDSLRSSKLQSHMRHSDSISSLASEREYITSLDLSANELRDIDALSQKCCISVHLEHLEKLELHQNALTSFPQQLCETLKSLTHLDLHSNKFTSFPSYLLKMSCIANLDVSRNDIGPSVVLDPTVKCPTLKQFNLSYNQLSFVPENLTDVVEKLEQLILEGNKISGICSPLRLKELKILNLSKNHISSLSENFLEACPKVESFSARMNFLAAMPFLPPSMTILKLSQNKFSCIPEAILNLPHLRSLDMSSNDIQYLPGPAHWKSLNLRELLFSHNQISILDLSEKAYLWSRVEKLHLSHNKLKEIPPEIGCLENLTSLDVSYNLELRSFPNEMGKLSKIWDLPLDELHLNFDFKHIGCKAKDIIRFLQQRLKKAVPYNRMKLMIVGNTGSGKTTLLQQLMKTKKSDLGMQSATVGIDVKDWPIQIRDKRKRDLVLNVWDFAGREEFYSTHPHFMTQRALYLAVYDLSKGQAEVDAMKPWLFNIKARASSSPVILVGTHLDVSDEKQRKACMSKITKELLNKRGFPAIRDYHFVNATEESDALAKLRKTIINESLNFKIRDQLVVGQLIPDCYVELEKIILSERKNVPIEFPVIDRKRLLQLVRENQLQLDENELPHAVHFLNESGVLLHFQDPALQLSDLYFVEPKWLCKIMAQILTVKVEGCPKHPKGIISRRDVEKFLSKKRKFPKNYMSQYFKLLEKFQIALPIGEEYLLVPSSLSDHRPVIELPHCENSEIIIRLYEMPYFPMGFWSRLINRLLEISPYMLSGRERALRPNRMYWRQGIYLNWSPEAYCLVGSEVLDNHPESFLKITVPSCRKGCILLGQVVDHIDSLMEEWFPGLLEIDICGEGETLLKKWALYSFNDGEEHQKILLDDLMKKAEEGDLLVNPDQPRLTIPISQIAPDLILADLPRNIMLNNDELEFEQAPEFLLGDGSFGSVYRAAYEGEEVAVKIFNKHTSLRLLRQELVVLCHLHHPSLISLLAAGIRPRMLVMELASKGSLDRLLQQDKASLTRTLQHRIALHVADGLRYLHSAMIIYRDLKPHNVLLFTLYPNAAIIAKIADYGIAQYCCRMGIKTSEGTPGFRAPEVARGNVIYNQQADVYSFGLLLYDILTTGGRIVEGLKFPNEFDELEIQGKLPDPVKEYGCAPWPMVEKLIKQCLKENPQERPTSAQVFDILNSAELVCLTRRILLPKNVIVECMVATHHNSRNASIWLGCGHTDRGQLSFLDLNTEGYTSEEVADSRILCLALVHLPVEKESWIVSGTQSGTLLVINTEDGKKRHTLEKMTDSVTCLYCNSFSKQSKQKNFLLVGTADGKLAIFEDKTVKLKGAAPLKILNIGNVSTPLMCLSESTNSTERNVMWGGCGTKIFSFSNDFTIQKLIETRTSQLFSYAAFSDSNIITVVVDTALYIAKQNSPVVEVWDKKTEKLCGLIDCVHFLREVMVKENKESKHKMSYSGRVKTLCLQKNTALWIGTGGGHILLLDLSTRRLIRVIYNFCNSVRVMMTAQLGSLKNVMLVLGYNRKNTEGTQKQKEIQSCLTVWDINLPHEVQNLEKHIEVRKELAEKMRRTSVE
Chain of Insulin-like growth factor 1 receptor (Homo sapiens) (P08069 31-736 limits assumed): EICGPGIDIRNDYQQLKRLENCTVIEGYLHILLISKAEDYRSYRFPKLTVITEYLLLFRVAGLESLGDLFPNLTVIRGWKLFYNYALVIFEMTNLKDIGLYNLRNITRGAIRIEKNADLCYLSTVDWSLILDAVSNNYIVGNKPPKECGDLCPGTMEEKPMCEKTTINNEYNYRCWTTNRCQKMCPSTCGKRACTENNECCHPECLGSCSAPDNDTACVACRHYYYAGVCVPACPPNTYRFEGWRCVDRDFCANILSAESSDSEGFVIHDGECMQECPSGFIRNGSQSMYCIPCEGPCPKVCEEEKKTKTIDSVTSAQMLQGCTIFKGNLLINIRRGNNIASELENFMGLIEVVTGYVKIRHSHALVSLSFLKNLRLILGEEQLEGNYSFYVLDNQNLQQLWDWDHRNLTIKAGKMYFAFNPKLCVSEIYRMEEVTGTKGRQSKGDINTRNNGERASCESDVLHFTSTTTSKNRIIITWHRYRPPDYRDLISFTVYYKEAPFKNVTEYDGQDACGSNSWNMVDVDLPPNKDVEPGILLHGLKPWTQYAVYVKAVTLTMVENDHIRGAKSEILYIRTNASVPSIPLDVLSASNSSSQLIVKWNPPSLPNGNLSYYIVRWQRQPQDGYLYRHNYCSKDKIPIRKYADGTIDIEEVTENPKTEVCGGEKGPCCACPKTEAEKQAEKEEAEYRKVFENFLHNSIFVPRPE
Chain of Insulin-like growth factor 1 receptor (Homo sapiens) (P08069 741-1367 limits assumed): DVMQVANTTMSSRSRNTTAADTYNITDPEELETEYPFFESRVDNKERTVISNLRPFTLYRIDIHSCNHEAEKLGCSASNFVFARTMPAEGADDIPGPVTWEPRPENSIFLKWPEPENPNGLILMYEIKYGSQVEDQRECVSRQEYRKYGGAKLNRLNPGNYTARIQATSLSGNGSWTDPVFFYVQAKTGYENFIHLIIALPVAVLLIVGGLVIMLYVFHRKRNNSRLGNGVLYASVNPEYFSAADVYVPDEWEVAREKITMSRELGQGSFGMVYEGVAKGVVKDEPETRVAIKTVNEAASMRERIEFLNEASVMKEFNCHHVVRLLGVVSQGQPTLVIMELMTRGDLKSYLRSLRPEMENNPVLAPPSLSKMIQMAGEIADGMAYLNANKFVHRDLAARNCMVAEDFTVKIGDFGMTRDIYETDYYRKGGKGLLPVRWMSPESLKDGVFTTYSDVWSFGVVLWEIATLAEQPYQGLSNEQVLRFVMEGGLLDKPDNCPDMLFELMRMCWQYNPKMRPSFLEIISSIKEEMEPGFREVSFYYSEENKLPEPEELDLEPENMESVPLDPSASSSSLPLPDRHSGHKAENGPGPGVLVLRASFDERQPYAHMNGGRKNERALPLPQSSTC
Chain of Fibroblast growth factor receptor 4 (Homo sapiens) (P22455 22-802 limits assumed): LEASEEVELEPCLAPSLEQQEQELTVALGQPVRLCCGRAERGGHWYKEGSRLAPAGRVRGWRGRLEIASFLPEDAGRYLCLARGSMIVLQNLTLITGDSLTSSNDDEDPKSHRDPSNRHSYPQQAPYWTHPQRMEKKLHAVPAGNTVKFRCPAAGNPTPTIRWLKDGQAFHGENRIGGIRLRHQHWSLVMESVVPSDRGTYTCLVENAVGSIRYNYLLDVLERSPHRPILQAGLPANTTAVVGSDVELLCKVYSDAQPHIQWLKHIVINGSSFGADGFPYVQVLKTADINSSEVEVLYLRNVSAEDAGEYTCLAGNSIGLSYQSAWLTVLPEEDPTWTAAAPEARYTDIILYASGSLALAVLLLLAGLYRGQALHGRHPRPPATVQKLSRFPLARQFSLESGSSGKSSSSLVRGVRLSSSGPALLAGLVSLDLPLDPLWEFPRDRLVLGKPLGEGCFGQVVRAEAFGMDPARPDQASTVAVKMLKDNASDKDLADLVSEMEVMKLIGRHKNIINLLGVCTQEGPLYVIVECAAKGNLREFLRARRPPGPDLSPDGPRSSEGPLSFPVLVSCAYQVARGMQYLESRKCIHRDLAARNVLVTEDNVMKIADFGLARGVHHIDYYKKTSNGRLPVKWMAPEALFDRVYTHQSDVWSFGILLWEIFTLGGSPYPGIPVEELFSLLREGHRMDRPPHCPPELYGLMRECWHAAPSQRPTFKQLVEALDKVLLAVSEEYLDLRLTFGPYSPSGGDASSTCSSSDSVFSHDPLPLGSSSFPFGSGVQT

O=C(Nc1c[nH]nc1-c1cc(Cl)ccc1OC(F)F)c1cnn2cccnc12
inhibition [1]: 0%
inhibition [2]: 9%
inhibition [3]: -1%
inhibition [4]: 4%
inhibition [5]: 38%
inhibition [6]: 3%
inhibition [7]: 32%
inhibition at 1 h, 0.1 µM (LRRK2): 87%
inhibition [8]: 7%
inhibition [9]: 11%
inhibition [10]: 38%
inhibition [11]: 18%
inhibition [12]: 8%

O=C(Nc1c[nH]nc1-c1cc2ccccc2cc1OC(F)F)c1cnn2cccnc12
inhibition [1]: 4%
inhibition [2]: 5%
inhibition [3]: 4%
inhibition [4]: 4%
inhibition [5]: 29%
inhibition [6]: -2%
inhibition [7]: 11%
inhibition at 1 h, 0.1 µM (LRRK2): 31%
inhibition [8]: 6%
inhibition [9]: -5%
inhibition [10]: 24%
inhibition [11]: -1%
inhibition [12]: 15%

Cn1cc(NC(=O)c2cnn3cccnc23)c(-c2cc(Cl)ccc2OC(F)F)n1
inhibition [1]: -4%
inhibition [2]: 8%
inhibition [3]: 5%
inhibition [4]: 6%
inhibition [5]: 62%
inhibition [6]: 5%
inhibition [7]: 10%
inhibition at 1 h, 0.1 µM (LRRK2): 61%
inhibition [8]: 6%
inhibition [9]: 11%
inhibition [10]: 14%
inhibition [11]: 2%
inhibition [12]: 6%
